Data reported in patent US9675584B2, “Substituted indoles for the inhibition of PASK” (BioEnergenix, LLC, priority 2011, dated 2017).

Molecular target: T1, hPASK (Homo sapiens, UniProt Q96RG2)
T1 construct: IC50 Kinase Domain; purchased Invitrogen
Experiment: Biochemical assay for hPASK activity (PAS kinase FRET assay; IC50 kinase domain)
Conditions: PASK kinase domain
Description: Biochemical Assay for hPASK Activity
One assay for purified hPASK activity utilizes the Kinase-Glo Luminescent Kinase Assay (Promega), which quantifies the amount of ATP remaining in solution following kinase reaction. The assay is carried out in a 96-well plate format and is performed by adding a volume of Kinase-Glo Reagent (Promega, catalog #V3771) equal to the volume of solution in the well of a completed kinase reaction. Kinase-Glo reagent contains Luciferase and its substrate. After addition to a kinase reaction it allows to measure luminescence. The amount of ATP left in solution at the time of Kinase-Glo Plus addition is directly proportional to the luminescence that is measured in each well, and inversely correlated with kinase activity.
Purified hPASK from insect cells (0.02 μg) is added to a 50 μL reaction mix containing 40 mM HEPES (pH 7.0), 100 mM KCl, 5 mM MgCl2, 1 mM DTT and 1 μg of MBP protein. […] The luminescence is measured as soon as 10 minutes after Kinase-Glo reagent is added. […]
The aim of the FRET assay is to determine the inhibition potential of test compounds on targeted kinase. This assay platform provides a homogenous screening method for measuring kinase activity by quantitating the amount of phospho-substrate in solution following a kinase reaction. […]

T1 sequence (Q96RG2 999-1251 limits assumed): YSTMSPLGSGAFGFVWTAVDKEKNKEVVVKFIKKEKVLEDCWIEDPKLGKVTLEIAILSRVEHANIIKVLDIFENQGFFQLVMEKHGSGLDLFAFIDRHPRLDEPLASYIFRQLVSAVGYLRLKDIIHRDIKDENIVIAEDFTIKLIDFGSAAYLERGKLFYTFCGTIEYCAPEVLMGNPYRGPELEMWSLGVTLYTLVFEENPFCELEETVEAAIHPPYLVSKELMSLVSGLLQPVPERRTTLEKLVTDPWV

Row | SMILES | IC50 [µM]
1 | O=C(O)/C=C/c1cnc(-c2ccc(F)cc2)c(-c2ccc(F)cc2)n1 [Example 2, (E)-3-(5,6-bis(4-fluorophenyl)pyrazin-2-yl)acrylic acid] | ≤ 10
2 | O=C(O)c1ccc2c(c1)cc(-c1ccc(F)cc1)n2-c1ccc(F)cc1 [Example 1, 1,2-Bis(4-fluorophenyl)-1H-indole-5-carboxylic acid] | ≤ 10
